Data as given in patent US20240091254A1, “WNT AGONISTS FOR PREVENTION OF CANCER” (ACADEMISH MEDISCH CENTRUM, priority 2021, published 2024).

Experiments:
[1] = system: intestinal stem cells (ISCs) / intestinal epithelial cells; assay: Oral LiCl in WT Lgr5-CreErt2;Rosa26mTmG mice: Wnt activation and neutral ISC dynamics; assay type: in vivo, mouse
Method: (§1) Lgr5-EGFP-IRES-Cre^ERT2 Villin-Cre^ERT2, Rosa26mTmG, Apc^fl/fl and Kras^G12D mice have been described earlier^30-34. All in vivo experiments were approved by the animal experimentation committee at the Amsterdam UMC—location Academic Medical Center in Amsterdam under nationally registered licence number AVD1180020172125 and performed according to national guidelines. Mice were housed in a 12 hour light/12 hour dark cycle, with temperatures between 20-24° C. and 40-70% humidity. For short term assays, both male and female mice were used. For long term assays, only females were used to prevent the risk of preliminary dropout due to fighting male mice. […] For all mouse experiments, sufficient sample sizes were determined based on previous studies with a similar study design^3,35. Experimental animals were randomly assigned to the control or lithium treated groups, clone sizes and adenoma counts were scored blindly. […] Mouse discomfort during tumour formation assays was closely monitored, and endpoints were determined as <15% weight loss within 2 days or a mouse grimace scale (MGS) score<3. […] After 60 days, intestines were removed and polyps were counted macroscopically.
(§2) After the mice were sacrificed, intestines were removed fully and washed thoroughly with ice-cold PBS. […] For all crypt analyses, clone sizes were quantified as proportions of the crypt circumference (in eights, 1:8-8:8). […]

KrasG12D-mutant clones = assay: KrasG12D clone dynamics in vivo with or without LiCl; design: species or system mouse; conditions: Lgr5-CreErt2;Rosa26mTmG;KrasG12D mice
Method: as §1, §2

[2] = system: Apc-/- mutant clones in crypts; assay: Short term clonal dynamics of Notumpos/Apc-/- clones in Lgr5-CreErt2;Apcfl/fl mice; assay type: in vivo, mouse
Method: Lgr5-EGFP-IRES-Cre^ERT2 Villin-Cre^ERT2, Rosa26mTmG, Apc^fl/fl and Kras^G12D mice have been described earlier^30-34. All in vivo experiments were approved by the animal experimentation committee at the Amsterdam UMC—location Academic Medical Center in Amsterdam under nationally registered licence number AVD1180020172125 and performed according to national guidelines. Mice were housed in a 12 hour light/12 hour dark cycle, with temperatures between 20-24° C. and 40-70% humidity. For short term assays, both male and female mice were used. For long term assays, only females were used to prevent the risk of preliminary dropout due to fighting male mice. All mice were between 6-12 weeks old at the start of the experiments. For all mouse experiments, sufficient sample sizes were determined based on previous studies with a similar study design^3,35. Experimental animals were randomly assigned to the control or lithium treated groups, clone sizes and adenoma counts were scored blindly. In vivo low-dose recombination was induced by intraperitoneal injection (i.p.) of 0.3 mg (for Rosa26^mTmG and Kras^G12D mice) or 2 mg (for Ape^−/− mice) tamoxifen (Sigma) dissolved in sunflower oil. […] Treatment with LiCl was initiated 7 days before recombination by i.p. injection of tamoxifen and was administered until the day they were sacrificed. For short term experiments to study stem cell dynamics, mice were sacrificed at day 4, 7, 10, 14, 21 days after intra peritoneal (i.p.) injection and intestines were removed and further processed for analyses. For long term adenoma formation experiments, mice were injected with 2 mg tamoxifen and sacrificed 60 days after i.p. injection. Mouse discomfort during tumour formation assays was closely monitored, and endpoints were determined as <15% weight loss within 2 days or a mouse grimace scale (MGS) score<3. […] After 60 days, intestines were removed and polyps were counted macroscopically.
After the mice were sacrificed, intestines were removed fully and washed thoroughly with ice-cold PBS. The intestines were cut into pieces of 5 mm, opened longitudinally and fixed overnight in 4% paraformaldehyde (PFA) solution. To preserve tissue integrity the intestines were kept in 30% sucrose solution for another night before freezing. Crypt bottoms were sliced with a thickness of […] at a Cryostar™ NX70 cryostat and placed on glass slips. Fluorescent lineage tracing labels were visualized with a SP8X Confocal (Leica), slides were counterstained with Hoechst-33342. RNA-ISH stained coupes were counterstained with hematoxylin and scanned using the IntelliSite Ultra Fast 1.6 slide scanner (Philips). For all crypt analyses, clone sizes were quantified as proportions of the crypt circumference (in eights, 1:8-8:8).
RNA in situ hybridisation (RNAscope) and Basescope was performed on fixed frozen intestinal tissue (mouse) and paraffine embedded tissue (mouse and human) according to manufacturer's protocol (ACD RNAscope® 2.5 HD—Brown and Red, and ACD BaseScope™ v2—Red). RNAscope was used for detection of mouse Notum (#428981), Wif1 (#412361), Dkk2 (#404841) or positive control Ppib (#313911) and human NOTUM (#430311) and positive control PPIB (#313901). BaseScope probe ApcE14-E16 (#703011) was used to detect recombined Apc alleles. RNAscope duplex was performed using the RNAscope Duplex Reagent Kit (#322430, ACD) with additional Lgr5 probe (#312171-C2). After RNAscope procedures tissues were counterstained for Hematoxylin or Hoechst-33342. RNAscope was quantified using QuPath software v0.2.2^39.
The clone data was modelled using the models and methods developed in Vermeulen et al.^3. An R package implementing the model was used and is available at https://qithub.com/MorrisseyLab/CryptDriftR.

With `[Cl-].[Li+]` [LiCl, lithium chloride] the “Influence on fundamental ISC dynamics (neutral ISC competition)” value ([1]; WT mice, oral LiCl) was “no influence on fundamental ISC dynamics”, the “Wnt activation in intestinal epithelial cells (Lgr5 expression, Lgr5-GFP cells)” value ([1]; oral LiCl 300 mg/liter in tap water) was “effective Wnt activation” and the KrasG12D clone dynamics (KrasG12D-mutant clones) was “remained unaffected”. For the same compound, the “Reduction of Lgr5 expression by Notumpos/Apc-/- clones within the same and neighbouring crypts” value ([2]; Lgr5-CreErt2;Apcfl/fl mice, oral LiCl) was “prevented this”, the “Number of Notumpos clones (crypts)” value ([2]; LiCl treated mice, day 21) was “reduced number of Notum^pos clones” and the “Probability of clonal fixation in a crypt (Pfix)” value ([2]; LiCl treated mice, model) was “markedly reduced probability of clonal fixation”. For the same compound, the “Number of functional ISCs (WT stem cells, NWT) in crypts” value ([2]; LiCl treated mice, adapted drift model, 4.7 untreated with Apc-/- clones, 5.6 fully WT crypts) was 6.5 (95% Cl: 6.2-6.8), the “Probability of replacement (PR) of WT ISCs by Apc-/- ISCs” value ([2]; LiCl treated mice, inferred by stem cell drift model, untreated 0.65, neutral 0.5) was 0.34 (95% Cl: 0.31-0.37) and the “Rate of Notumpos/Apc-/- clone expansion and fixation” value ([2]; LiCl versus non-treated mice, up to day 21) was “significantly reduced”.
